Series [1] has as its system premature ejaculation model in Wistar rats after PCA induction. Put plainly: premature ejaculation model in Wistar rats after PCA induction. The format is in vivo. The settings on record: for Actual ejaculation number / First contractive latency / First ejaculation latency / Seminal vesicle basal pressure (mmHg) / Seminal vesicle peak pressure (mmHg) / The number of seminal vesicle contractions: individual rats, within 30 min after PCA induction. The method, then:
Male Wistar rats with body weight of about 300 g were subjected to a one-week acclimation period before the experiment began. On the day of the experiment, the animals were anesthetized with intraperitoneal (i.p.) injection of Zoletil 50 at 20 mg/kg combined with xylazine at 8 mg/kg, and then subjected to body temperature maintenance at 37° C. using a thermostatically controlled heating pad. The common carotid artery was exposed and cannulated with a PE50 catheter for real-time monitoring of arterial pressure (systolic blood pressure, diastolic blood pressure, and mean arterial pressure). The seminal vesicle and corpus cavernosum muscle of the animals were exposed. Seminal vesicle pressure and corpus cavernosum electromyographic (EMG) stabilized baseline were recorded for 10 min. In the dapoxetine group, the medications were administrated via tail vein intravenous (i.v.) injection; in the to-be-tested compound group, the to-be-tested compound was administrated orally (in the PE model group, the to-be-tested compound was substituted with vehicles); after 1 min, PCA (5 mg/kg) was intraperitoneally (i.p.) injected to induce the PE model; and recording of seminal vesicle pressure profiles and electromyographic (EMG) activity variations in the bulbocavernosus muscle continued to be performed for 30 min.
• A. The actual ejaculation number and the first ejaculation latency in animals within 30 min • B. The number of seminal vesicle contractions, the first contractive latency, basal pressure, and peak pressure within 30 min
The experimental data was represented by mean±S.E.M. and statistically analyzed by GraphPad Prism 7.0 software. One-way analysis of variance (One-way ANOVA) was used for comparison among multiple groups, and Dunnett't-test was used for statistical analysis in Post hoc test; and the comparison between two groups was statistically analyzed using Student's t-test. P<0.05 indicates a significant difference.

For series [2] the following is noted: in vivo; cited from earlier work.
The mark [3] stands for this setting: 0.125 mg/kg p.o. + PCA 5 mg/kg i.p.
[4] abbreviates: 0.5 mg/kg p.o. + PCA 5 mg/kg i.p.
[5] abbreviates: 2 mg/kg p.o. + PCA 5 mg/kg i.p.
Where [6] appears, read: 2 mg/kg p.o. + PCA 5 mg/kg i.p., listed as A002.
Where [7] appears, read: Dapoxetine 2 mg/kg i.v. + PCA 5 mg/kg i.p., hydrochloride.
The mark [8] stands for this setting: statistical analysis, PCA-induced model.

The text below walks through data of US20260001872A1, “BENZISOTHIAZOLE COMPOUND AND APPLICATION THEREOF, AND PHARMACEUTICAL COMPOSITION AND APPLICATION THEREOF” (Picomole Therapeutics (Liaoning) Co., Ltd., priority 2022, published 2026).

Molecules are shown by their SMILES. Values joined by “and” are separate entries in the source; they are usually repeats but may differ in a detail not shown here. Equal entries are not always repeated. Structures can show the parent of a compound that is named as a salt.

For the compound `c1ccc2nn(CCCCN3CCN(c4nsc5ccccc45)CC3)nc2c1` [A001], in series [1] (setting [3]), the Actual ejaculation number is 2 (2×) and 6 (2×) and 1; the “First contractive latency” value was 1278 s and 824 s and 889 s and 1207 s and 1558 s; the “First ejaculation latency” value is 1456 s and 916 s and 985 s and 1380 s and 1667 s; the “Seminal vesicle basal pressure (mmHg)” value was 5.79 mmHg and 6.18 mmHg and 6.05 mmHg and 4.78 mmHg and 3.89 mmHg. In addition, in series [1] (setting [3]), the “Seminal vesicle peak pressure (mmHg)” value is 13.46 mmHg and 16.77 mmHg and 20.06 mmHg and 11.05 mmHg and 9.81 mmHg; the “The number of seminal vesicle contractions” value (from here on “The number”) was 5 and 9 and 8 and 4 and 3. Further, in series [1] (setting [4]), the Actual ejaculation number was 2 (3×) and 0 (2×); the “First contractive latency” value is 1186 s and 1298 s and 1317 s and 1800 s (2×); the “First ejaculation latency” value is 1256 s and 1382 s and 1477 s and 1800 s (2×); the “Seminal vesicle basal pressure (mmHg)” value is 5.76 mmHg and 5.88 mmHg and 5.79 mmHg and 3.67 mmHg and 3.87 mmHg. In series [1] (setting [4]), the “Seminal vesicle peak pressure (mmHg)” value is 11.87 mmHg and 10.66 mmHg and 9.08 mmHg and 4.86 mmHg and 5.23 mmHg; the “The number” value was 3 and 4 (2×) and 0 (2×). Further, in series [1] (setting [5]), the Actual ejaculation number stood at 0 and the “First ejaculation latency” value was found to be 1800 s. In addition, in series [1] (setting [6]), the “First contractive latency” value was 1568 s and 1800 s (4×); the “Seminal vesicle basal pressure (mmHg)” value was 4.05 mmHg and 4.17 mmHg and 4.86 mmHg and 4.18 mmHg and 3.88 mmHg; the “Seminal vesicle peak pressure (mmHg)” value is 9.67 mmHg and 6.04 mmHg and 5.18 mmHg and 4.98 mmHg and 5.05 mmHg; the “The number” value is 2 and 0 (4×).

For `CN(C)[C@@H](CCOc1cccc2ccccc12)c1ccccc1` [Dapoxetine, Dapoxetine hydrochloride, reference compound], in series [1] (setting [7]), the Actual ejaculation number is 1 (2×) and 0 (2×) and 2; the “First contractive latency” value was 1448 s and 1705 s and 1800 s and 1749 s and 866 s; the “First ejaculation latency” value was 1558 s and 1800 s (2×) and 1256 s and 967 s; the “Seminal vesicle basal pressure (mmHg)” value was 5.16 mmHg and 4.97 mmHg and 5.37 mmHg and 5.88 mmHg and 4.96 mmHg. Besides, in series [1] (setting [7]), the “Seminal vesicle peak pressure (mmHg)” value is 6.89 mmHg and 8.1 mmHg and 6.46 mmHg and 6.78 mmHg and 7.03 mmHg; the “The number” value was 1 (3×) and 0 and 3. Moreover, in series [1] (P<0.01, P<0.001, FIG. 4), the “initial seminal vesicle contractive latency compared with the PE model group” value was “significant increase”. In addition, in series [1] (setting [8]), the “contraction number of the corpus cavernosum muscle (conclusion)” value is reported as “decrease”, the “ejaculation latency (conclusion)” value was “effectively prolong”, the “ejaculation number (conclusion)” value is given as “significantly decrease” and the “seminal vesicle pressure (conclusion)” value is recorded as “reduce”. Besides, in series [2], the bioavailability is listed as 42%.

Usually bioavailability stands for the share of a dose that reaches the circulation, judged against a reference dose that is usually intravenous.
